Measured values taken from ChEMBL document CHEMBL4251632, “Synthesis and antidepressant-like activity of novel aralkyl piperazine derivatives targeting SSRI/5-HT1A/5-HT7” (Eur J Med Chem, 2018).

Experiments:
[1] = molecular target: T1, 5-hydroxytryptamine receptor 7 (Homo sapiens, UniProt P34969); assay: Displacement of [3H]LSD from recombinant human 5-HT7 receptor expressed in CHO cell membranes at 10 uM after 120 mins by TopCount scintillation counting method relative to control
[2] = molecular target: T1, 5-hydroxytryptamine receptor 7; assay: Displacement of [3H]LSD from recombinant human 5-HT7 receptor expressed in CHO cell membranes after 120 mins by TopCount scintillation counting method
[3] = Clearance in rat liver microsomes at 1 uM in presence of NADPH by LC-MS/MS analysis; type: ADME, microsome; settings: read-out: CLH
Mus musculus [4] = assay: Antidepressant-like activity in mouse assessed as reduction in immobility time at 40 mg/kg/day, po once daily for 7 days measured for last 4 mins of 6 mins test at 1 hr post last dose by forced swim test relative to control; type: functional; parameters: scale not given: the % may be the effect or the level left
Mus musculus [5] = assay: Antidepressant-like activity in po dosed mouse assessed as reduction in immobility time administered once daily for 7 days measured for last 4 mins of 6 mins test at 1 hr post last dose by forced swim test; type: functional, organism-based
[6] = molecular target: Voltage-gated inwardly rectifying potassium channel KCNH2 (Homo sapiens, UniProt Q12809); assay: Inhibition of human ERG expressed in CHO-K1 cells assessed as reduction in tail current amplitude at -80 mV holding potential after 2 mins by path clamp assay; type: cell-based
Mus musculus [7] = assay: Antidepressant-like activity in mouse assessed as reduction in immobility time at 40 mg/kg/day, po administered once daily for 7 days measured for 5 mins at 1 hr post last dose by tail suspension test relative to control; type: functional; parameters: scale not given: the % may be the effect or the level left
Mus musculus [8] = assay: Antidepressant-like activity in mouse assessed as reduction in immobility time at 20 mg/kg/day, po administered once daily for 7 days measured for 5 mins at 1 hr post last dose by tail suspension test relative to control; type: functional; parameters: scale not given: the % may be the effect or the level left
[9] = molecular target: T2, Alpha-1A adrenergic receptor (Homo sapiens, UniProt P35348); assay: Displacement of [3H]prazosin from alpha1-adrenoceptor (unknown origin) in cerebral cortex membranes after 60 mins by TopCount scintillation counting method; type: cell membranes, Membrane
T2 sequence (P35348 whole entry): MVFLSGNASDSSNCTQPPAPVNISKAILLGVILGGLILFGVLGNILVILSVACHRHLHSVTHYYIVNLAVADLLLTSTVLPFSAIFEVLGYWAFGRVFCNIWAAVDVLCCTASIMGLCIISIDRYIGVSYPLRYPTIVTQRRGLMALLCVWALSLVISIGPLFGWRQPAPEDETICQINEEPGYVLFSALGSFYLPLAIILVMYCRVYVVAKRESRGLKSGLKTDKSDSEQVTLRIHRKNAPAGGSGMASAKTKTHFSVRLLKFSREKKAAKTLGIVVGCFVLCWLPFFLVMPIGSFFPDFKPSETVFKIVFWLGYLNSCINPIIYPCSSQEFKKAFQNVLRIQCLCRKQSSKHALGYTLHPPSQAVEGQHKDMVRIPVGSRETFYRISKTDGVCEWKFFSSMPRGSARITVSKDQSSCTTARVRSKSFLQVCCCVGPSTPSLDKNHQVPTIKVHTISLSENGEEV

Homo sapiens = species: Homo sapiens; assay: Selectivity ratio of Ki for alpha1-adrenoceptor (unknown origin) in cerebral cortex membranes to Ki for recombinant human 5-HT1A receptor expressed in HEK293 cell membranes; type: cell-based
[10] = Apparent terminal half life in Sprague-Dawley rat at 2 mg/kg, po administered as single dose by LC-MS/MS analysis; type: ADME, organism-based; settings: in vivo, read-out: betat1/2(app) (converted)
[11] = Cmax in Sprague-Dawley rat at 2 mg/kg, po administered as single dose by LC-MS/MS analysis; type: ADME, organism-based; parameters: dose 2 mg/kg, route oral; settings: in vivo
[12] = AUC (0 to t) in Sprague-Dawley rat at 0.5 mg/kg, iv administered as single dose by LC-MS/MS analysis; type: ADME, organism-based; settings: in vivo
[13] = MRT (0 to t) in Sprague-Dawley rat at 0.5 mg/kg, iv administered as single dose by LC-MS/MS analysis; type: ADME, organism-based; settings: in vivo
Rattus norvegicus [14] = assay: Apparent volume of distribution during terminal phase in Sprague-Dawley rat at 0.5 mg/kg, iv administered as single dose by LC-MS/MS analysis; type: ADME, organism-based; settings: in vivo
Rattus norvegicus [15] = assay: Apparent clearance during terminal phase in Sprague-Dawley rat at 0.5 mg/kg, iv administered as single dose by LC-MS/MS analysis; type: ADME, organism-based; settings: in vivo
[16] = Apparent terminal half life in Sprague-Dawley rat at 0.5 mg/kg, iv administered as single dose by LC-MS/MS analysis; type: ADME, organism-based; settings: in vivo, read-out: betat1/2(app) (converted)
[17] = Tmax in Sprague-Dawley rat at 0.5 mg/kg, iv administered as single dose by LC-MS/MS analysis; type: ADME, organism-based; settings: in vivo
[18] = Cmax in Sprague-Dawley rat at 0.5 mg/kg, iv administered as single dose by LC-MS/MS analysis; type: ADME, organism-based; parameters: dose 0.5 mg/kg, route intravenous; settings: in vivo
[19] = Plasma concentration in Sprague-Dawley rat at 2 mg/kg, po administered as single dose measured after 30 mins by LC-MS/MS analysis; type: ADME, organism-based
[20] = Plasma concentration in Sprague-Dawley rat at 2 mg/kg, po administered as single dose measured after 6 hrs by LC-MS/MS analysis; type: ADME, organism-based
[21] = Plasma concentration in Sprague-Dawley rat at 2 mg/kg, po administered as single dose measured after 8 hrs by LC-MS/MS analysis; type: ADME, organism-based
[22] = Plasma concentration in Sprague-Dawley rat at 0.5 mg/kg, iv administered as single dose measured after 5 mins by LC-MS/MS analysis; type: ADME, organism-based
[23] = Plasma concentration in Sprague-Dawley rat at 0.5 mg/kg, iv administered as single dose measured after 30 mins by LC-MS/MS analysis; type: ADME, organism-based
[24] = Plasma concentration in Sprague-Dawley rat at 0.5 mg/kg, iv administered as single dose measured after 1 hr by LC-MS/MS analysis; type: ADME, organism-based
[25] = Plasma concentration in Sprague-Dawley rat at 0.5 mg/kg, iv administered as single dose measured after 2 hrs by LC-MS/MS analysis; type: ADME, organism-based
[26] = Plasma concentration in Sprague-Dawley rat at 0.5 mg/kg, iv administered as single dose measured after 4 hrs by LC-MS/MS analysis; type: ADME, organism-based
[27] = Plasma concentration in Sprague-Dawley rat at 0.5 mg/kg, iv administered as single dose measured after 8 hrs by LC-MS/MS analysis; type: ADME, organism-based

T1 sequence (P34969 whole entry): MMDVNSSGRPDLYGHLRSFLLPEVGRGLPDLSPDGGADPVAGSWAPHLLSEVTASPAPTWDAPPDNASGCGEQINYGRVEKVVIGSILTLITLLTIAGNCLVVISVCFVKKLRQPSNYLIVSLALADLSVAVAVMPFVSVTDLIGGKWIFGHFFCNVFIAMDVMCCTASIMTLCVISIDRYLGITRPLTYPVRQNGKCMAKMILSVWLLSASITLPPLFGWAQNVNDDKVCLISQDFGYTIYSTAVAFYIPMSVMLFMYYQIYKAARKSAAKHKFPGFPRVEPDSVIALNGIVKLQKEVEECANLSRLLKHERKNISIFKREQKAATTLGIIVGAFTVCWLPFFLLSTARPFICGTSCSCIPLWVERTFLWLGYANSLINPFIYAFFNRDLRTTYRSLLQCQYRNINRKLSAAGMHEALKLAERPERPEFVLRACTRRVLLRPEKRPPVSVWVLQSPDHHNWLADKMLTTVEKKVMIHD
Voltage-gated inwardly rectifying potassium channel KCNH2, sequence (Q12809 whole entry): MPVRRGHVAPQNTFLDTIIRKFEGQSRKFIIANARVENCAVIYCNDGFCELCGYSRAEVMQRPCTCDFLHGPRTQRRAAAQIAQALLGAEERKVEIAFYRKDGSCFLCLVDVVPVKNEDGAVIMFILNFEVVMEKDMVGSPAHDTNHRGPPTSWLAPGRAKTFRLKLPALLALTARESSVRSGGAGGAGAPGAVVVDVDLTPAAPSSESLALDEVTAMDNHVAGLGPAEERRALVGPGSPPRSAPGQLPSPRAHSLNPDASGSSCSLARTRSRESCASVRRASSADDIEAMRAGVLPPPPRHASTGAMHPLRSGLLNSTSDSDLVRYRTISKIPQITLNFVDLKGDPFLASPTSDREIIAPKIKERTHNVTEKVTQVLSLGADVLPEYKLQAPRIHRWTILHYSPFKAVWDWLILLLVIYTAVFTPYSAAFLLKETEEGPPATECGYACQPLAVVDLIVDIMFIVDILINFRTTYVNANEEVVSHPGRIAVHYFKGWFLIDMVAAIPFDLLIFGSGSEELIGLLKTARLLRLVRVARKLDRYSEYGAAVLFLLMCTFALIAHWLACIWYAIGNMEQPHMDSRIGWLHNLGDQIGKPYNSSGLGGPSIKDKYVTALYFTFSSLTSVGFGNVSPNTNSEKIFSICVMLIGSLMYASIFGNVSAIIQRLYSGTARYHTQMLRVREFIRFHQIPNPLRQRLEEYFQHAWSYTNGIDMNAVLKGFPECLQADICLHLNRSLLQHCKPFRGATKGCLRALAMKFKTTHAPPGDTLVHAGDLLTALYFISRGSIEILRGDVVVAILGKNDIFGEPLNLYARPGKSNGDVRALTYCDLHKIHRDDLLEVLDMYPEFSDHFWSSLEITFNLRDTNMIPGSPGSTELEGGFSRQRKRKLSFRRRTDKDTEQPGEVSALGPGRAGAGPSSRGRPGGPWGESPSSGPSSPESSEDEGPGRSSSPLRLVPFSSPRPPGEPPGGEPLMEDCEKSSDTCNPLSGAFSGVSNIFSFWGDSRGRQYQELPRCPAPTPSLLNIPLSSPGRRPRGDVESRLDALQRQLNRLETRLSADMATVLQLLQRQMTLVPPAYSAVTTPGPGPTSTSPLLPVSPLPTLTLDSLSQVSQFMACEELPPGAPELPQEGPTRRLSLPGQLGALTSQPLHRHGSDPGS

With `Fc1ccc(N2CCN(CCCc3c[nH]c4ccc(F)cc34)CC2)c(-c2ccccc2)c1` the inhibition [1] was > 90%, the Ki [2] was 3.3 nM and the microsomal CLint at 1 µM [3] was 29.8 µL/min/mg. The Activity (Mus musculus [4]) was 54%, the Activity (Mus musculus [5]) was “Dose-dependent effect” and the IC50 [6] was 16700 nM. It also gave an Activity (Mus musculus [7]) of 39%, an Activity (Mus musculus [8]) of 20% and a Ki [9] of 28 nM. For the same compound, the Ratio Ki (Homo sapiens) was 1, the half-life [10] was 6.1 h and the Cmax [11] was 86.7 ng/mL. The AUC(0-t) [12] was 287 ng·h/mL, the MRT last [13] was 1.9 h and the Vz/F (Rattus norvegicus [14]) was 7.4 L/kg. For the same compound, the CLz/F (Rattus norvegicus [15]) was 25 mL/min/kg, the half-life [16] was 3.3 h and the Tmax [17] was 6 min. For the same compound, the Cmax [18] was 342 ng/mL, the concentration at 0.5 h [19] was 58.3 ng/mL and the concentration at 6 h [20] was 64.7 ng/mL. It also gave a concentration at 8 h [21] of 47.4 ng/mL, a concentration at 5 min [22] of 342 ng/mL and a concentration at 0.5 h [23] of 80.8 ng/mL. For the same compound, the concentration at 1 h [24] was 51.3 ng/mL, the concentration at 2 h [25] was 32.3 ng/mL and the concentration at 4 h [26] was 20.7 ng/mL. The concentration at 8 h [27] was 8.84 ng/mL.
